Measured values from US5157049A, “Method of treating cancers sensitive to treatment with water soluble derivatives of taxol” (The United States of America as represented by the …, priority 1991, dated 1992).
Entries after “also recorded” stand apart in the source; their conditions may differ. Where a name gives a salt, the structure may show the parent alone.

Columns and labels:
[1] = system: Human MX-1 Mammary Tumor Xenograft; assay: Human MX-1 mammary tumor xenograft (3MBG5) assay; conditions: MX-1 xenograft; for % T/C (tumor weight change): day 11
Method: (§1) Another approach to make basic derivatives is based on the concept of taking an existing hydrolysable derivative and further modifying it to form a derivative that allows for stepwise hydrolysis.
(§2) ^a Screening was carried out under the auspices of the National Cance
(§3) Institute. For detailed explanations of procedures and data, see
(§4) Instruction 14, Screening Data Summary Interpretation and Outline of
(§5) Current Screen, Drug Evaluation Branch, Developmental Therapeutics
(§6) Program, Division of Cancer Treatment, National Cancer Institute,
(§7) Bethesda, Maryland 20892.
(§8) ^b Q01D × 09. Single dose for 9 days; given in milligrams per
(§9) kilogram body weight per injection.
(§10) ^c Abbreviations: survivors day 4, live animals on the fourth day of
(§11) testing/total animal; wt diff, g (T - C), the difference in body weight i
(§12) grams between test and control animals; % T/C, the median lifetime of tes
(§13) animals divided by the median lifetime of control animals, times 100; for
(§14) the solid tumor system % T/C is 100 × (change in treated tumor wt 1
(§15) day 11 - day 0)/change in control tumor wt.) if the tumor grows or 100
(§16) × (change in treated tumor wt./initial treated tumor wt.) if the
(§17) tumor regresses; cures, number of live animals on the last day of
(§18) evaluation for the B16 melanoma system (day 60) or number of animals
(§19) without measurable tumor on day 11 for the MX1 mammary tumor system.

[2] = system: B16 Melanoma; assay: Antitumor activity in the B16 melanoma system (NCI screen); conditions: B16, Q01D × 09
Method: as §1
Antitumor Activity in the B16 Melanoma System^a
as §2, §3, §4, §5, §6, §7, §8, §9, §10, §11, §12, §13, §14, §15, §16, §17, §18, §19

[3] = Aqueous solubility; conditions: water
[4] = system: tubulin; conditions: mechanism of action, Horwitz; cited from earlier work
[5] = numerous studies; cited from earlier work
[6] = water; background statement; cited from earlier work
[7] = a number of test systems; cited from earlier work

CC(=O)O[C@H]1C(=O)[C@@]2(C)[C@H]([C@H](OC(=O)c3ccccc3)[C@]3(O)C[C@H](OC(=O)[C@H](OC(=O)CCCC(=O)NCCCN(C)C)[C@@H](NC(=O)c4ccccc4)c4ccccc4)C(C)=C1C3(C)C)[C@]1(OC(C)=O)CO[C@@H]1C[C@@H]2O [Example 25, HCl-Salt]
Survivors Day 4 ([1]; 2.5 mg/kg per injection): 6/6 | WT Diff, g (T - C) ([1]; 2.5 mg/kg per injection): -0.6 g | % T/C (tumor weight change) ([1]; 2.5 mg/kg per injection): 22% | Survivors Day 4 ([1]; 5 mg/kg per injection): 6/6 | WT Diff, g (T - C) ([1]; 5 mg/kg per injection): 0.1 g | % T/C (tumor weight change) ([1]; 5 mg/kg per injection): 1% | Survivors Day 4 ([1]; 10 mg/kg per injection): 6/6 | WT Diff, g (T - C) ([1]; 10 mg/kg per injection): -2.2 g | % T/C (tumor weight change) ([1]; 10 mg/kg per injection): 1% | Survivors Day 4 ([1]; 20 mg/kg per injection): 5/6 | WT Diff, g (T - C) ([1]; 20 mg/kg per injection): 0.3 g | cures (animals without measurable tumor on day 11) ([1]; 20 mg/kg per injection): 5 | % T/C (tumor weight change) ([1]; 20 mg/kg per injection, negative = regression): -100% | Survivors Day 4 ([1]; 40 mg/kg per injection): 5/6 | WT Diff, g (T - C) ([1]; 40 mg/kg per injection): -5.9 g | cures (animals without measurable tumor on day 11) ([1]; 40 mg/kg per injection): 5 | % T/C (tumor weight change) ([1]; 40 mg/kg per injection, negative = regression): -100% | % T/C (median lifetime) ([2]; 1.2 mg/kg per injection): 123% | Survivors Day 4 ([2]; 1.2 mg/kg per injection): 10/10 | WT Diff, g (T - C) ([2]; 1.2 mg/kg per injection): -0.1 g | % T/C (median lifetime) ([2]; 2.5 mg/kg per injection): 129% | Survivors Day 4 ([2]; 2.5 mg/kg per injection): 10/10 | WT Diff, g (T - C) ([2]; 2.5 mg/kg per injection): -0.1 g | % T/C (median lifetime) ([2]; 5 mg/kg per injection): 188% | Survivors Day 4 ([2]; 5 mg/kg per injection): 10/10 | WT Diff, g (T - C) ([2]; 5 mg/kg per injection): 0.1 g | % T/C (median lifetime) ([2]; 10 mg/kg per injection): 352% | Survivors Day 4 ([2]; 10 mg/kg per injection): 10/10 | WT Diff, g (T - C) ([2]; 10 mg/kg per injection): -0.1 g | cures (live animals day 60) ([2]; 10 mg/kg per injection): 5 | % T/C (median lifetime) ([2]; 20 mg/kg per injection): 352% | Survivors Day 4 ([2]; 20 mg/kg per injection): 10/10 | WT Diff, g (T - C) ([2]; 20 mg/kg per injection): 0 g | cures (live animals day 60) ([2]; 20 mg/kg per injection): 6 | aqueous solubility (in words) [3]: good solubility | solubility [3]: ~10000 µg/mL

CC(=O)O[C@H]1C(=O)[C@@]2(C)[C@H]([C@H](OC(=O)c3ccccc3)[C@]3(O)C[C@H](OC(=O)[C@H](O)[C@@H](NC(=O)c4ccccc4)c4ccccc4)C(C)=C1C3(C)C)[C@]1(OC(C)=O)CO[C@@H]1C[C@@H]2O [Taxol, taxol]
promotion of tubulin assembly (in words) [4]: promoting tubulin assembly into stable aggregated structures which resist depolymerization by dilution, calcium ion, cold, and a number of microtubule-disrupting drugs | cytotoxicity (in words) [5]: highly cytotoxic | aqueous solubility of taxol (in words) [6]: essentially insoluble in water; also recorded: extremely low aqueous solubility | % T/C (median lifetime) ([2]; 5 mg/kg per injection): 175% | Survivors Day 4 ([2]; 5 mg/kg per injection): 10/10 | WT Diff, g (T - C) ([2]; 5 mg/kg per injection): -0.2 g | % T/C (median lifetime) ([2]; 10 mg/kg per injection): 139% | Survivors Day 4 ([2]; 10 mg/kg per injection): 10/10 | WT Diff, g (T - C) ([2]; 10 mg/kg per injection): 0 g | % T/C (median lifetime) ([2]; 20 mg/kg per injection): 96% | Survivors Day 4 ([2]; 20 mg/kg per injection): 10/10 | WT Diff, g (T - C) ([2]; 20 mg/kg per injection): -0 g | % T/C (median lifetime) ([2]; 40 mg/kg per injection): TOXIC | Survivors Day 4 ([2]; 40 mg/kg per injection): 10/10 | WT Diff, g (T - C) ([2]; 40 mg/kg per injection): -1.2 g | in vivo activity (in words) [7]: strong in vivo activity
